Each structure is given as a SMILES string. Structures can show the parent of a compound that is named as a salt.

Usually Ki stands for a dissociation constant, usually derived from enzyme kinetics or from competition with a known ligand.

Chain of purified human plasma kallikrein (P03952 391-638): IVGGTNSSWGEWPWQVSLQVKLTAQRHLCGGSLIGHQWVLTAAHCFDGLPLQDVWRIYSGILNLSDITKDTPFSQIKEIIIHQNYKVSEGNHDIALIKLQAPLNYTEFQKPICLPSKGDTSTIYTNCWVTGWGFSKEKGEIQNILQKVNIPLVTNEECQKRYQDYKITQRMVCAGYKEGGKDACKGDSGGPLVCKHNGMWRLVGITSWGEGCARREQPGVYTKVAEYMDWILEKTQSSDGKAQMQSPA
Chain of purified human plasma kallikrein (P03952 20-390 partner): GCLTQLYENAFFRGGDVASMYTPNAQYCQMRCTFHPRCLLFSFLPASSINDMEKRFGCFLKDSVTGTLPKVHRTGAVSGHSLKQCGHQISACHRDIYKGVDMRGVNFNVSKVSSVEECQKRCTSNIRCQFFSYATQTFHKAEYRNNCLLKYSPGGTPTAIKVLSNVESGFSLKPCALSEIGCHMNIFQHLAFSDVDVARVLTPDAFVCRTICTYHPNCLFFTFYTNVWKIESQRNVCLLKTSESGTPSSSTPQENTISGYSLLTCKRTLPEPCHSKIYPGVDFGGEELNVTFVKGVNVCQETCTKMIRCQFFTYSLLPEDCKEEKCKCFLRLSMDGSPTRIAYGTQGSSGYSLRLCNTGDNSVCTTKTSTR

One test has as its target purified human plasma kallikrein (Homo sapiens (Human), UniProt P03952). The experiment in a line: Plasma kallikrein enzyme inhibition assay (chromogenic substrate S-2302). Type of test: biochemical. As to conditions: measured at 25° C. (no asterisk).
Molecule `O=C(O)c1ccc(NC(=O)[C@@H]2c3cccc(N4CCCCC4)c3CCN2C(=O)[C@H]2CC(c3cccc(Cl)c3F)=NO2)cc1` [Example 291, 4-((S)-2-((R)-3-(3-chloro-2-fluorophenyl)-4,5-dihydroisoxazole-5-carbonyl)-5-(piperidin-1-yl)-1,2,3,4-tetrahydroisoquinoline-1-carboxamido)benzoic acid, TFA salt] came in with a Ki of 15.2 nM.

For `COc1cccc2c1CCN(C(=O)[C@H]1CC(c3cccc(Cl)c3F)=NO1)[C@H]2C(=O)Nc1ccc(C(=O)O)cc1` [Example 294, 4-((R)-2-((R)-3-(3-chloro-2-fluorophenyl)-4,5-dihydroisoxazole-5-carbonyl)-5-methoxy-1,2,3,4-tetrahydroisoquinoline-1-carboxamido)benzoic acid], the Ki was 111 nM.

Turning to `CNC(=O)c1ccc(-c2cccc3c2CCN(C(=O)[C@H]2CC(c4cccc(Cl)c4F)=NO2)[C@H]3C(=O)Nc2ccc(C(=O)O)cc2)cn1` [Example 20, 4-((R)-2-((R)-3-(3-Chloro-2-fluorophenyl)-4,5-dihydroisoxazole-5-carbonyl)-5-(6-(methylcarbamoyl)pyridin-3-yl)-1,2,3,4-tetrahydroisoquinoline-1-carboxamido)benzoic acid, TFA salt], the affinity, expressed as Ki, was 840 nM.

Molecule `O=C(O)c1ccc(NC(=O)[C@@H]2c3cccc(N4CCOCC4)c3CCN2C(=O)[C@H]2CC(c3cccc(Cl)c3F)=NO2)cc1` [Example 295, 4-((S)-2-((R)-3-(3-chloro-2-fluorophenyl)-4,5-dihydroisoxazole-5-carbonyl)-5-morpholino-1,2,3,4-tetrahydroisoquinoline-1-carboxamido)benzoic acid, TFA salt] had a Ki of 2.44 nM.

`COC1CCN(c2cccc3c2CCN(C(=O)C2CCN(c4cccc(Cl)c4)C2=O)C3C(=O)Nc2ccc(C(=O)O)cc2)CC1` (stereo not drawn) [Example 151, 4-(2-(1-(3-chlorophenyl)-2-oxopyrrolidine-3-carbonyl)-5-(4-methoxypiperidin-1-yl)-1,2,3,4-tetrahydroisoquinoline-1-carboxamido)benzoic acid, TFA salt] came in with a Ki of 816 nM.

Consider `CNC(=O)c1ccc(-c2cccc3c2CCN(C(=O)[C@H]2CC(c4cccc(Cl)c4F)=NO2)[C@@H]3C(=O)Nc2ccc(C(=O)O)cc2)cn1` [Example 19, 4-((S)-2-((R)-3-(3-Chloro-2-fluorophenyl)-4,5-dihydroisoxazole-5-carbonyl)-5-(6-(methylcarbamoyl)pyridin-3-yl)-1,2,3,4-tetrahydroisoquinoline-1-carboxamido)benzoic acid, TFA salt], for which the affinity corresponds to a Ki of 1.51 nM.

Staying with this test, now noted: measured at 25° C. (no asterisk); TFA salt.
With `COC1CCN(c2cccc3c2CCN(C(=O)C2CC(c4cccc(Cl)c4F)=NO2)C3C(=O)Nc2ccc(C(=O)O)cc2)CC1` (single isomer, unassigned) [Example 304, 4-(2-(3-(3-chloro-2-fluorophenyl)-4,5-dihydroisoxazole-5-carbonyl)-5-(4-methoxypiperidin-1-yl)-1,2,3,4-tetrahydroisoquinoline-1-carboxamido)benzoic acid, TFA salt], the inhibition constant Ki came out at 232 nM.

Still in this test, the particulars now being: measured at 37° C. (*).
In turn, `CC(C)c1nnc2n1CCN(c1cccc3c1CCN(C(=O)[C@@H]1CC(c4cccc(Cl)c4F)=NO1)[C@H]3C(=O)Nc1ccc(C(=O)O)cc1)C2` [Example 339, 4-((R)-2-((S)-3-(3-Chloro-2-fluorophenyl)-4,5-dihydroisoxazole-5-carbonyl)-5-(3-isopropyl-5,6-dihydro-[1,2,4]triazolo[4,3-a]pyrazin-7(8H)-yl)-1,2,3,4-tetrahydroisoquinoline-1-carboxamido)benzoic acid, TFA salt] registered a Ki of 84.6 nM.

For the molecule `O=C(O)c1ccc(NC(=O)[C@@H]2c3cccc(-c4cncc(F)c4)c3CCN2C(=O)[C@H]2CC(c3cccc(Cl)c3F)=NO2)cc1` [Example 21, 4-((S)-2-((R)-3-(3-Chloro-2-fluorophenyl)-4,5-dihydroisoxazole-5-carbonyl)-5-(5-fluoropyridin-3-yl)-1,2,3,4-tetrahydroisoquinoline-1-carboxamido)benzoic acid, TFA salt], the Ki came out at 9.6 nM.

For the origin of these results see patent US9738655B2, “Tetrahydroisoquinolines containing substituted azoles as factor XIa inhibitors” (BRISTOL-MYERS SQUIBB COMPANY, priority 2013, dated 2017).
